Data on 5 compounds can be found in patent publication US4740233A, “Substituted 1,2,4-triazolo[1,5-a]-pyrimidine-2-sulfonamides and compositions and methods of controlling undesired vegetation and suppressing the nitrification of ammonium nitrogen in soil” (The Dow Chemical Company, priority 1986, dated 1988).

The test system of one assay is soybean. The assay is described as follows: Postemergent control of plant species. Type of assay: in vivo, Glycine max. Particulars: Glycine max, post-emergence, 336 h, read-out: percent postemergent control. Summed up:
(§1)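 Compounds in acetone mixed 1:1 with water containing 0.1% surfactant, sprayed postemergence on greenhouse plants at the 2-4 leaf stage. Growth reduction versus untreated plants of the same species scored after about two weeks.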

Another assay deals with cocklebur. The assay is described as follows: Postemergent control of plant species. Type of assay: in vivo, Xanthium spp. The following applies: Xanthium strumarium, post-emergence, 336 h, read-out: percent postemergent control. Summed up: as §1
The subject of a further assay is sorghum. The assay is described as follows: Postemergent control of plant species. The assay is classed as in vivo, Sorghum vulgare. The following applies: Sorghum, post-emergence, 336 h, read-out: percent postemergent control. Summed up: as §1
The next assay relates to corn. The assay is described as follows: Postemergent control of plant species. The assay is classed as in vivo, Zea mays. The following applies: Zea mays, post-emergence, 336 h, read-out: percent postemergent control. Summed up: as §1
Another assay deals with rice. Briefly: Postemergent control of plant species. Particulars: Oryza sativa, post-emergence, 336 h, read-out: percent postemergent control. Type of assay: in vivo, Oryza sativa. Summed up:
as §1

A further assay relates to yellow foxtail. The assay is described as follows: Postemergent control of plant species. Type of assay: in vivo, Setaria lutescens. Particulars: Setaria, post-emergence, 336 h, read-out: percent postemergent control. Summed up:
as §1

For another assay, the system named is cotton. Briefly: Postemergent control of plant species. Type of assay: in vivo, Gossypium spp. Particulars: Gossypium hirsutum, post-emergence, 336 h, read-out: percent postemergent control. Summed up: as §1
Another assay relates to rape. Briefly: Postemergent control of plant species. Particulars: Brassica napus, post-emergence, 336 h, read-out: percent postemergent control. Type of assay: in vivo, Brassica napus. Summed up:
as §1

Another assay concerns annual morning glory. Briefly: Postemergent control of plant species. The assay is classed as in vivo, Ipomoea spp. The following applies: Ipomoea, post-emergence, 336 h, read-out: percent postemergent control. Summed up:
as §1

A further assay concerns yellow nutsedge. The assay is described as follows: Postemergent control of plant species. Type of assay: in vivo, Cyperus esculentus. The following applies: Cyperus, post-emergence, 336 h, read-out: percent postemergent control. Summed up: as §1
A further assay deals with wild oats. The assay is described as follows: Postemergent control of plant species. The assay is classed as in vivo, Avena fatua. The following applies: Avena fatua, post-emergence, 336 h, read-out: percent postemergent control. Summed up: as §1
The subject of a further assay is sugar beet. The assay is described as follows: Postemergent control of plant species. Particulars: Beta vulgaris, post-emergence, 336 h, read-out: percent postemergent control. Type of assay: in vivo, Beta saccharifera. Summed up:
as §1

Another assay deals with pigweed. Briefly: Postemergent control of plant species. The following applies: Amaranthus retroflexus, post-emergence, 336 h, read-out: percent postemergent control. Type of assay: in vivo, Amaranthus spp. Summed up:
as §1

For another assay, the system named is velvetleaf. The assay is described as follows: Postemergent control of plant species. Particulars: Abutilon theophrasti, post-emergence, 336 h, read-out: percent postemergent control. Type of assay: in vivo, Abutilon theophrasti. Summed up:
as §1

A further assay has as its system crabgrass. Briefly: Postemergent control of plant species. Type of assay: in vivo, Digitaria spp. Particulars: Digitaria sanguinalis, post-emergence, 336 h, read-out: percent postemergent control. Summed up:
as §1

A further assay deals with johnson grass. The assay is described as follows: Postemergent control of plant species. Particulars: Sorghum halepense, post-emergence, 336 h, read-out: percent postemergent control. The assay is classed as in vivo, Sorghum halepense. Summed up:
as §1

A further assay concerns barnyardgrass. Briefly: Postemergent control of plant species. Type of assay: in vivo, Echinochloa crusgalli. The following applies: Echinochloa crus-galli, post-emergence, 336 h, read-out: percent postemergent control. Summed up:
as §1

Assay [1] has as its system nitrification of ammonium nitrogen. Briefly: Suppression of nitrification of ammonium nitrogen in soil. Particulars: 27° C. Summed up:
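Soil (20 g) moistened to its 1/3 bar tension value, mixed with test chemical and incubated sealed for two weeks at 27° C. Nitrate extracted with ammonium sulfate solution and measured by nitrate-specific ion electrode; value given as % NH4-N remaining.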

The subject of a further assay is jimsonweed. The assay is described as follows: Postemergent control of plant species. The assay is classed as in vivo, Datura stramonium. Particulars: Datura stramonium, post-emergence, 336 h, read-out: percent postemergent control. Summed up:
as §1

A further assay relates to wheat. Briefly: Postemergent control of plant species. The following applies: Triticum aestivum, post-emergence, 336 h, read-out: percent postemergent control. Type of assay: in vivo, Triticum aestivum. Summed up:
as §1

Turning to `Cc1cc(C)n2nc(S(=O)(=O)Nc3c(C)nn(C)c3C(F)(F)F)nc2n1` [Compound 247], the plant injury at 500 ppm in the assay on soybean worked out at 70%; with sorghum, 0%; in the assay with corn, 0%; in the assay on rice it was 0%; in the assay on cotton it was 0%; in the assay on rape, 70%. For the same compound, the figures for the plant injury at 500 ppm in the assay on sugar beet and in the assay with wheat were 70% and 0%, respectively. Further, the pest or weed control at 500 ppm in the assay on cocklebur is 20%; in the assay on yellow foxtail, 0%; in the assay on annual morning glory, 0%; with yellow nutsedge it was 0%; in the assay on wild oats it was 0%; with pigweed it was 70%. For the same compound, the pest or weed control at 500 ppm in the assay with velvetleaf was 40%; with crabgrass, 0%; in the assay with johnson grass, 0%; with barnyardgrass, 0%; in the assay on jimsonweed it was 20%. Moreover, the “% NH4-N Remaining After 2 Weeks Incubation” value in assay [1] (0.06 ppm) is on record as 58%; in assay [1] (0.25 ppm), 47%; in assay [1] (1 ppm), 58%; in assay [1] (4 ppm), 82%.
Consider `CCOc1cnc2nc(S(=O)(=O)Nc3ccccc3C(F)(F)F)nn2c1` [Compound 201], for which the plant injury at 500 ppm in the assay with soybean was 0%; with sorghum, 0%; in the assay on corn, 0%; in the assay with rice, 0%; with cotton, 0%; in the assay on rape, 20%. Further, the values for the plant injury at 500 ppm with sugar beet and in the assay with wheat were 50% and 0%, respectively. In addition, the pest or weed control at 500 ppm in the assay with cocklebur turned out to be 80%; in the assay on yellow foxtail, 0%; in the assay with annual morning glory it was 0%; with yellow nutsedge, 0%; in the assay with wild oats it was 0%; in the assay on pigweed, 90%. The pest or weed control at 500 ppm turned out to be 60% in the assay with velvetleaf; 0% with crabgrass; 0% with johnson grass; 0% in the assay on barnyardgrass; 70% with jimsonweed. Further, the “% NH4-N Remaining After 2 Weeks Incubation” value in [1] (0.06 ppm) is 0%; in [1] (0.25 ppm) it was 11%; in assay [1] (1 ppm), 56%; in assay [1] (4 ppm) it was 67%.
On to `O=S(=O)(Nc1c(F)cccc1F)c1nc2ncc(Cl)cn2n1` [Compound 117, 6-chloro-N-(2,6-difluorophenyl)-1,2,4-triazolo[1,5-a]pyrimidine-2-sulfonamide], for which the plant injury at 500 ppm turned out to be 35% in the assay with soybean; 60% in the assay on sorghum; 0% with corn; 0% with rice; 90% in the assay on cotton; 100% in the assay with rape. Also, the plant injury at 500 ppm in the assay on sugar beet amounted to 100%; in the assay on wheat it was 0%. The pest or weed control at 500 ppm came to 100% in the assay with cocklebur; 65% with yellow foxtail; 80% in the assay with annual morning glory; 25% with yellow nutsedge; 0% with wild oats; 75% in the assay with pigweed. Moreover, the pest or weed control at 500 ppm is 100% in the assay on velvetleaf; 0% in the assay on crabgrass; 75% in the assay with johnson grass; 0% in the assay on barnyardgrass; 100% in the assay on jimsonweed. In addition, the “% NH4-N Remaining After 2 Weeks Incubation” value in [1] (0.06 ppm) worked out at 32%; in assay [1] (0.25 ppm), 24%; in assay [1] (1 ppm), 41%; in assay [1] (4 ppm), 72%.
For the compound `Cc1nc2nc(S(=O)(=O)Nc3ccccc3C(F)(F)F)nn2c2c1CCC2` [Compound 106], the plant injury at 500 ppm in the assay with soybean turned out to be 90%; in the assay with sorghum, 40%; in the assay with corn, 90%; in the assay with rice it was 30%; with cotton, 30%; with rape it was 40%. Moreover, the figures for the plant injury at 500 ppm with sugar beet and in the assay with wheat were 0% and 20%, respectively. Also, the pest or weed control at 500 ppm with cocklebur is 90%; with yellow foxtail it was 0%; in the assay with annual morning glory, 80%; with yellow nutsedge, 0%; in the assay on wild oats it was 30%; with pigweed it was 40%. Moreover, the pest or weed control at 500 ppm with velvetleaf was 0%; in the assay with crabgrass it was 0%; in the assay with johnson grass it was 90%; in the assay with barnyardgrass, 30%; with jimsonweed, 0%. For the same compound, the “% NH4-N Remaining After 2 Weeks Incubation” value in assay [1] (0.01 ppm) was determined as 29%; in assay [1] (0.1 ppm) it was 56%; in assay [1] (1 ppm), 88%; in [1] (10 ppm), 96%.
On to `Cc1cc(C)n2nc(S(=O)(=O)Nc3c(Cl)cccc3CO)nc2n1` [Compound 93], for which the plant injury at 500 ppm amounted to 90% in the assay on soybean; 0% in the assay with sorghum; 0% with corn; 0% with rice; 0% in the assay with cotton; 70% with rape. Also, the plant injury at 500 ppm in the assay on sugar beet turned out to be 70%; in the assay with wheat, 0%. Further, the pest or weed control at 500 ppm with cocklebur was determined as 80%; with yellow foxtail it was 0%; in the assay on annual morning glory, 0%; in the assay on yellow nutsedge it was 15%; with wild oats, 0%; with pigweed, 70%. The pest or weed control at 500 ppm with velvetleaf was determined as 20%; with crabgrass, 0%; in the assay on johnson grass, 0%; in the assay on barnyardgrass, 0%; in the assay with jimsonweed it was 80%. Besides, the “% NH4-N Remaining After 2 Weeks Incubation” value in assay [1] (0.06 ppm) came out at 79%; in assay [1] (0.25 ppm), 57%; in assay [1] (1 ppm), 64%; in assay [1] (4 ppm), 89%.
